Experiments:
KRAS(G12C) [1] = molecular target: T1, KRAS(G12C) (Homo sapiens, UniProt P01116, G12C); test: KRAS(G12C)/SOS1 homogeneous time-resolved fluorescence (HTRF) assay; parameters: purchased Cisbio 63ADK000CB16PEG; conditions: absence of GTP, 4° C. for 3 hr, read-out: KRAS (G12C) binding
How it was run: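 HTRF kit measuring compound-induced block of KRAS(G12C)-SOS1 interaction without GTP. Compounds tested as 3-fold serial dilutions down to 1.02 nM, incubated with reaction components 3 h at 4 °C in sealed plates before fluorescence read.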

[2] = system: MIA PaCa-2 human pancreatic carcinoma; test: MIA PaCa-2 CCK-8 proliferation assay; type: cell-based; conditions: Homo sapiens, MIA PaCa-2, 72 h, MIA PaCa-2 cells
How it was run: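 Compounds were tested as a 3-fold series from 20 μM down to 1.02 nM in CCK-8 absorbance assays. The lines used were NCI-H23 and NCI-H358, each with 1 KRAS(G12C) copy, and MIA PaCa-2 with 2 copies. Inhibition was derived relative to DMSO controls, with a no-cell blank subtracted.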

KRAS(G12C) [3] = molecular target: T1, KRAS(G12C); test: KRAS(G12C) Western blot protein degradation assay in LU65A cells; type: cell-based; parameters: LU65A human lung cancer cell line, which expresses KRAS(G12C); host or cells: LU65A; conditions: 6 hr
How it was run: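 Cells treated with compound at various concentrations at 37 °C for 48 hr (MIA PaCa-2) or 6 hr (LU65A), then lysed in RIPA. Protein-normalized lysates immunoblotted for KRAS with β-actin, fluorescence quantified; DC50 is the concentration giving 50% of maximal KRAS degradation.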

T1 sequence (P01116 1-188 isoform P01116-2 G12C): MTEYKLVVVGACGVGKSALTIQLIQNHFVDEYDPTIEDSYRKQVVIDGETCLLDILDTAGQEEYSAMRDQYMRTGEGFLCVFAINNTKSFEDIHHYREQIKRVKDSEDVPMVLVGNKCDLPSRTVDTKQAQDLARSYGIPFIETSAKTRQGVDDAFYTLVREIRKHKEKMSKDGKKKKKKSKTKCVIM

| IC50 (KRAS(G12C) [1]) | EC50 [2] | DC50 (KRAS(G12C) [3]) | Compound |
| --- | --- | --- | --- |
| < 100 nM | < 100 nM | 100 to 1000 nM | C=CC(=O)N1CCN(c2nc(OC[C@@H]3C[C@H](N4CCN(Cc5ccc(-n6c(C(=O)NCC)nnc6-c6cc(C(C)C)c(O)cc6O)cc5)CC4)CN3C)nc3c2CCN(c2cccc4cccc(C)c24)C3)C[C@@H]1CC#N [Compound 280, 4-[4-({4-[(3S,5S)-5-[({4-[(3S)-3-(cyanomethyl)-4-(prop-2-enoyl)piperazin-1-yl]-7-(8-methylnaphthalen-1-yl)-5H,6H,8H-pyrido[3,4-d]pyrimidin-2-yl}oxy)methyl]-1-methylpyrrolidin-3-yl]piperazin-1-yl}methyl)phenyl]-5-(2,4-dihydroxy-5-iso-propylphenyl)-N-ethyl-1,2,4-triazole-3-carboxamide] |
| 100 to 1000 nM | 100 to 1000 nM | > 1000 nM | C=CC(=O)N1CCN(c2nc(OCCN3CCC(N4CCN(Cc5ccc(-n6c(O)nnc6-c6cc(C(C)C)c(O)cc6O)cc5)CC4)CC3)nc3c2CCN(c2cccc4cccc(Cl)c24)C3)C[C@@H]1CC#N [Compound 237, (S)-2-(1-acryloyl-4-(7-(8-chloronaphthalen-1-yl)-2-(2-(4-(4-(4-(3-(2,4-dihydroxy-5-isopropylphenyl)-5-hydroxy-4H-1,2,4-triazol-4-yl)benzyl)piperazin-1-yl)piperidin-1-yl)ethoxy)-5,6,7,8-tetrahydropyrido[3,4-d]pyrimidin-4-yl)piperazin-2-yl)acetonitrile] |
| 100 to 1000 nM | < 100 nM | > 1000 nM | C=C(F)C(=O)N1CCN(c2nc(OC[C@@H]3CC[C@H](CN4CCN(Cc5ccc(-n6c(O)nnc6-c6cc(C(C)C)c(O)cc6O)cc5)CC4)N3C)nc3c2CCN(c2cccc4ccccc24)C3)C[C@@H]1CC#N [Compound 286, 2-[(2S)-4-(2-{[(2S,5R)-5-{[4-({4-[3-(2,4-dihydroxy-5-isopropylphenyl)-5-hydroxy-1,2,4-triazol-4-yl]phenyl}methyl)piperazin-1-yl]methyl}-1-methylpyrrolidin-2-yl]methoxy}-7-(naphthalen-1-yl)-5H,6H,8H-pyrido[3,4-d]pyrimidin-4-yl)-1-(2-fluoroprop-2-enoyl)piperazin-2-yl]acetonitrile] |
| < 100 nM | < 100 nM | 100 to 1000 nM | C=CC(=O)N1CCN(c2nc(OC[C@@H]3C[C@H](N4CCN(C(=O)C5CCN(Cc6ccc(-n7c(C(=O)NCC(F)(F)F)nnc7-c7cc(C(C)C)c(O)cc7O)cc6)CC5)CC4)CN3C)nc3c2CCN(c2cccc4cccc(Cl)c24)C3)C[C@@H]1CC#N [Compound 261, 4-{4-[(4-{4-[(3S,5S)-5-({[7-(8-chloronaphthalen-1-yl)-4-[(3S)-3-(cyanomethyl)-4-(prop-2-enoyl)piperazin-1-yl]-5H,6H,8H-pyrido[3,4-d]pyrimidin-2-yl]oxy}methyl)-1-methylpyrrolidin-3-yl]piperazine-1-carbonyl}piperidin-1-yl)methyl]phenyl}-5-(2,4-dihydroxy-5-isopropylphenyl)-N-(2,2,2-trifluoroethyl)-1,2,4-triazole-3-carboxamide] |
| < 100 nM | 100 to 1000 nM | > 1000 nM | C=CC(=O)N1CCN(c2nc(OC[C@@H]3C[C@H](N4CCN(Cc5ccc(-n6c(O)nnc6-c6cc(C(C)C)c(O)cc6O)cc5)CC4)CN3C)nc3c2CCN(c2cccc4cccc(Cl)c24)C3)C[C@@H]1CC#N [Compound 241, 2-[(2S)-4-[7-(8-chloronaphthalen-1-yl)-2-{[(2S,4S)-4-[4-({4-[3-(2,4-dihydroxy-5-isopropylphenyl)-5-hydroxy-1,2,4-triazol-4-yl]phenyl}methyl)piperazin-1-yl]-1-methylpyrrolidin-2-yl]methoxy}-5H,6H,8H-pyrido[3,4-d]pyrimidin-4-yl]-1-(prop-2-enoyl)piperazin-2-yl]acetonitrile] |
| < 100 nM | > 1000 nM | > 1000 nM | C=CC(=O)N1CCN(c2nc(OC[C@@H]3C[C@H](N4CCC(C(=O)N5CCN(Cc6ccc(-n7c(O)nnc7-c7cc(C)c(O)cc7O)cc6)CC5)CC4)CN3C)nc3c2CCN(c2cccc4ccccc24)C3)C[C@@H]1CC#N [Compound 247, 2-[(2S)-4-(2-{[(2S,4S)-4-{4-[4-({4-[3-(2,4-dihydroxy-5-methylphenyl)-5-hydroxy-1,2,4-triazol-4-yl]phenyl}methyl)piperazine-1-carbonyl]piperidin-1-yl}-1-methylpyrrolidin-2-yl]methoxy}-7-(naphthalen-1-yl)-5H,6H,8H-pyrido[3,4-d]pyrimidin-4-yl)-1-(prop-2-enoyl)piperazin-2-yl]acetonitrile] |
| < 100 nM | 100 to 1000 nM | 100 to 1000 nM | C=CC(=O)N1CCN(c2nc(OC[C@@H]3CC[C@H](CN4CCN(Cc5ccc(-n6c(O)nnc6-c6cc(C(C)C)c(O)cc6O)cc5)CC4)N3C)nc3c2CCN(c2cccc(C)c2C)C3)C[C@@H]1CC#N [Compound 281, 2-[(2S)-4-(2-{[(2S,5R)-5-{[4-({4-[3-(2,4-dihydroxy-5-isopropylphenyl)-5-hydroxy-1,2,4-triazol-4-yl]phenyl}methyl)piperazin-1-yl]methyl}-1-methylpyrrolidin-2-yl]methoxy}-7-(2,3-dimethylphenyl)-5H,6H,8H-pyrido[3,4-d]pyrimidin-4-yl)-1-(prop-2-enoyl)piperazin-2-yl]acetonitrile] |

Second part, the molecule before the results:

| Compound | IC50 (KRAS(G12C) [1]) | EC50 [2] | DC50 (KRAS(G12C) [3]) |
| --- | --- | --- | --- |
| C=CC(=O)N1CCN(c2nc(OC[C@@H]3C[C@H](N4CCN(CC5CCN(Cc6ccc7c(c6)CN(C(=O)c6cc(C(C)C)c(O)cc6O)C7)CC5)CC4)CN3C)nc3c2CCN(c2cccc4cccc(Cl)c24)C3)C[C@@H]1CC#N [Compound 290, 2-[(2S)-4-[7-(8-chloronaphthalen-1-yl)-2-{[(2S,4S)-4-{4-[(1-{[2-(2,4-dihydroxy-5-isopropylbenzoyl)-1,3-dihydroisoindol-5-yl]methyl}piperidin-4-yl)methyl]piperazin-1-yl}-1-methylpyrrolidin-2-yl]methoxy}-5H,6H,8H-pyrido[3,4-d]pyrimidin-4-yl]-1-(prop-2-enoyl)piperazin-2-yl]acetonitrile] | < 100 nM | < 100 nM | > 1000 nM |
| C=CC(=O)N1CCN(c2nc(OC[C@@H]3CC[C@H](CN4CCN(C(=O)C5CCN(Cc6ccc(-n7c(C(=O)NCC)nnc7-c7cc(CC)c(O)cc7O)cc6)CC5)CC4)N3C)nc3c2CCN(c2cccc4cccc(Cl)c24)C3)C[C@@H]1CC#N [Compound 244, 4-(4-{[4-(4-{[(2R,5S)-5-({[7-(8-chloronaphthalen-1-yl)-4-[(3S)-3-(cyanomethyl)-4-(prop-2-enoyl)piperazin-1-yl]-5H,6H,8H-pyrido[3,4-d]pyrimidin-2-yl]oxy}methyl)-1-methylpyrrolidin-2-yl]methyl}piperazine-1-carbonyl)piperidin-1-yl]methyl}phenyl)-N-ethyl-5-(5-ethyl-2,4-dihydroxyphenyl)-1,2,4-triazole-3-carboxamide] | < 100 nM | < 100 nM | 100 to 1000 nM |
| C=CC(=O)N1CCN(c2nc(OC[C@@H]3CC[C@H](CN4CCN(Cc5ccc(-n6c(C(=O)NCC)nnc6-c6cc(C(C)C)c(O)cc6O)cc5)CC4)N3C)nc3c2CCN(c2cccc(C)c2C)C3)C[C@@H]1CC#N [Compound 282, 4-{4-[(4-{[(2R,5S)-5-[({4-[(3S)-3-(cyanomethyl)-4-(prop-2-enoyl)piperazin-1-yl]-7-(2,3-dimethylphenyl)-5H,6H,8H-pyrido[3,4-d]pyrimidin-2-yl}oxy)methyl]-1-methylpyrrolidin-2-yl]methyl}piperazin-1-yl)methyl]phenyl}-5-(2,4-dihydroxy-5-isopropylphenyl)-N-ethyl-1,2,4-triazole-3-carboxamide] | < 100 nM | 100 to 1000 nM | 100 to 1000 nM |
| C=CC(=O)N1CCN(c2nc(OCCN3CCN(C(=O)C4CCN(Cc5ccc(-n6c(C(=O)NCC(F)(F)F)nnc6-c6cc(C(C)C)c(O)cc6O)cc5)CC4)C[C@H]3CN(C)C)nc3c2CCN(c2cccc4cccc(Cl)c24)C3)C[C@@H]1CC#N [Compound 266, 4-(4-((4-((R)-4-(2-((4-((S)-4-acryloyl-3-(cyanomethyl)piperazin-1-yl)-7-(8-chloronaphthalen-1-yl)-5,6,7,8-tetrahydropyrido[3,4-d]pyrimidin-2-yl)oxy)ethyl)-3-((dimethylamino)methyl)piperazine-1-carbonyl)piperidin-1-yl)methyl)phenyl)-5-(2,4-dihydroxy-5-isopropylphenyl)-N-(2,2,2-trifluoroethyl)-4H-1,2,4-triazole-3-carboxamide] | 100 to 1000 nM | > 1000 nM | 100 to 1000 nM |
| C=CC(=O)N1CCN(c2nc(OC[C@@H]3CC[C@H](CN4CCN(C(=O)C5CCN(Cc6ccc(-n7c(O)nnc7-c7cc(C(C)C)c(O)cc7O)cc6)CC5)CC4)N3C)nc3c2CCN(c2cccc4ccccc24)C3)C[C@@H]1CC#N [Compound 255, 2-[(2S)-4-(2-{[(2S,5R)-5-({4-[1-({4-[3-(2,4-dihydroxy-5-isopropylphenyl)-5-hydroxy-1,2,4-triazol-4-yl]phenyl}methyl)piperidine-4-carbonyl]piperazin-1-yl}methyl)-1-methylpyrrolidin-2-yl]methoxy}-7-(naphthalen-1-yl)-5H,6H,8H-pyri-do[3,4-d]pyrimidin-4-yl)-1-(prop-2-enoyl)piperazin-2-yl] acetonitrile] | < 100 nM | 100 to 1000 nM | 100 to 1000 nM |

Source: patent US20230391772A1, “METHODS AND COMPOSITIONS FOR TARGETED PROTEIN DEGRADATION” (Ranok Therapeutics (Hangzhou) Co. Ltd., priority 2020, published 2023)
